Source: patent publication US9889130B2, “Substituted 3-benzofuranyl-indol-2-one-3-acetamididopiperazine derivatives, preparation thereof, and therapeutic use thereof” (SANOFI, priority 2009, dated 2018)

Assays:
ghrelin receptor = biological target: T1, ghrelin receptor (Rattus norvegicus, UniProt O08725); experiment: Ghrelin antagonism in electrically stimulated rat gastric fundus strips (called In Vivo Test); conditions: isolated rat gastric fundus strips, electric-field stimulation, ghrelin 0.1 nM-1 μM concentration-response curves, antagonist contact time 30 minutes; read-out: IC50, antagonist activity towards the ghrelin receptor
T1 construct: Strips of approximately 1 cm (5 mm wide) of gastric fundus were cut out along the longitudinal axis; from tissue; host or cells: rat gastric fundus strips
T1 sequence (O08725 whole entry): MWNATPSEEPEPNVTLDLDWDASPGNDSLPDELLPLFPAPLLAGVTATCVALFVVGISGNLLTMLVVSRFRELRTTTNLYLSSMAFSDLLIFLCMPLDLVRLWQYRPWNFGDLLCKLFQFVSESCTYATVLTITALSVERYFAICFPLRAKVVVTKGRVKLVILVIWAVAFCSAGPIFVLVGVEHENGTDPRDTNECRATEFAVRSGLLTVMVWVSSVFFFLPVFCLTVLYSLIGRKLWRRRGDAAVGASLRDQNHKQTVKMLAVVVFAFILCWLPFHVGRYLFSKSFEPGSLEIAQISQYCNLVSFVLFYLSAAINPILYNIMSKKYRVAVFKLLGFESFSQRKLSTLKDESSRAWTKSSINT
Procedure: Male Crl CD BR rats (Charles River, Italy) weighing 150-175 g were housed in a chamber at regulated temperature (22±1° C.) and humidity (55±10%) and with a 12-hour lightness-darkness cycle, for at least 7 days before their use. Feed and water were available ad libitum. The feed was removed 18 hours before sacrificing the animals. The rats were sacrificed by cervical dislocation, and the stomach was removed surgically, opened along the shorter curvature and placed in a Krebs solution (of composition (mM): 118.4 NaCl; 4.7 KCl; 2.5 CaCl2; 3.7 NaH2PO4; 1.2 MgSO4; 25 NaHCO3; 5.6 glucose). The animals were cared for and sacrificed according to the Sanofi-Aventis international code of ethics and the international principles governing the care and treatment of laboratory animals (EEC Directive 86/609, DJL358, 1, 12 Dec. 1987). […] The contractions were recorded by computer with a data recording and analysis system (Power Lab, Chart 5) connected to isotonic transducers (Ugo Basile, Varese, Italy) via preamplifiers (Octal Bridge Amp). […] The pKb values for the antagonists were calculated according to the Cheng-Prusoff equation (Kenakin et al., Competitive Antagonism, Pharmacologic Analysis of Drug-Receptor Interaction, 3rd edition, 331-373, Philadelphia, New York; Raven: Lippincott, 1997).

SMILES	melting point [°C]	IC50 (ghrelin receptor) [µM]
CCN1C(C)CN(CC(=O)NC2(c3ccc4occc4c3)C(=O)Nc3cc(Cl)cc(Cl)c32)CC1C (single isomer, unassigned; (+)) [Example 1, (+)-N-[4,6-Dichloro-3-(benzofuran-5-yl)-2-oxo-2,3-dihydro-1H-indol-3-yl]-2-(4-ethyl-3,5-dimethylpiperazin-1-yl)acetamide]	157 to 160	
CCN1CCN(C(C)C(=O)NC2(c3ccc4occc4c3)C(=O)Nc3cc(Cl)cc(Cl)c32)CC1 (single isomer, unassigned; (+)) [Example 2, (+)-N-[4,6-Dichloro-3-(benzofuran-5-yl)-2-oxo-2,3-dihydro-1H-indol-3-yl]-2-(4-ethylpiperazin-1-yl)propionamide]	137 to 138	0.012
